# Experimental data: patent US12252524B2, “GIP/GLP1 co-agonist compounds” (Eli Lilly and Company, priority 2018, dated 2025)
# Numbered stars: 1 amine (or outer) side, 2 acyl side, 3 side chain; on linkers, the order of the positions; unused ones are H or OH. Square brackets hold non-standard residues; d marks the D form. Side chains are listed from the residue outwards. Peptide text beside a SMILES is read from it. * marks the point of attachment. C20 diacid = O=C(O)CCCCCCCCCCCCCCCCCCC(=O)*; C18 diacid = O=C(O)CCCCCCCCCCCCCCCCC(=O)*; αMePhe(2-F) = C[C@](N)(Cc1ccccc1F)C(=O)O; γGlu = O=C(O)[C@H](CCC(=O)[*:2])N[*:1]; αMeF = C[C@](N)(Cc1ccccc1)C(=O)O; αMeL = CC(C)C[C@](C)(N)C(=O)O; Dab = NCC[C@H](N)C(=O)O; Dap = NC[C@H](N)C(=O)O; AEEA = NCCOCCOCC(=O)O; Aib = CC(C)(N)C(=O)O
# Columns and labels:
# human Gcg receptor = target: T1, human Gcg receptor (Homo sapiens, UniProt P47871); test: [125I]-Glucagon binding (SPA), human Gcg receptor; conditions: read-out: hGLcgR Ki, nM (SEM, n)
# T1 construct: expressed in transfected cells; crude membranes
# T1 sequence (P47871 26-477): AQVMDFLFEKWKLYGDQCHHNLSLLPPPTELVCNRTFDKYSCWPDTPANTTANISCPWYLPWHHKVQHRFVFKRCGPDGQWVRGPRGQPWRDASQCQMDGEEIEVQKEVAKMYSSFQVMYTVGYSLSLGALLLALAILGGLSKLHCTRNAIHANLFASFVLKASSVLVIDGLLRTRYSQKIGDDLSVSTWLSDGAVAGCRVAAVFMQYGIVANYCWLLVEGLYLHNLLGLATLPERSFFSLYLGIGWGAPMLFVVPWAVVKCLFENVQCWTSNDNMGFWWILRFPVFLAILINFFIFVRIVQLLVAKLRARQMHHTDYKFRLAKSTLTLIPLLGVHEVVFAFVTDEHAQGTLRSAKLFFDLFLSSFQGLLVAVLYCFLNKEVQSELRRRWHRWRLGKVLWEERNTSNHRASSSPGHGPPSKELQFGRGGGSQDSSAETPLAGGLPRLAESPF
# Summary of the method: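 Crude membranes from cells expressing the receptor, prepared by hypotonic lysis in 50 mM Tris HCl pH 7.5 with protease inhibitors, homogenization and differential centrifugation, were used in a WGA-bead SPA. Binding buffer: 25 mM HEPES pH 7.4, 2.5 mM CaCl2, 1 mM MgCl2, bacitracin, Tween-20.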
# [1] = target: human GLP-1 receptor (GLP-1R) (Homo sapiens, UniProt P43220); test: cAMP pharmacological functional assay in presence of casein, hGLP-1R; assay type: cell-based; conditions: HEK293 cells expressing hGLP-1R, 0.1% Casein, geometric mean; read-out: hGLP1R cAMP Rel EC50 nM (SEM, n)
# human GLP-1 receptor (GLP-1R), sequence (P43220 24-463): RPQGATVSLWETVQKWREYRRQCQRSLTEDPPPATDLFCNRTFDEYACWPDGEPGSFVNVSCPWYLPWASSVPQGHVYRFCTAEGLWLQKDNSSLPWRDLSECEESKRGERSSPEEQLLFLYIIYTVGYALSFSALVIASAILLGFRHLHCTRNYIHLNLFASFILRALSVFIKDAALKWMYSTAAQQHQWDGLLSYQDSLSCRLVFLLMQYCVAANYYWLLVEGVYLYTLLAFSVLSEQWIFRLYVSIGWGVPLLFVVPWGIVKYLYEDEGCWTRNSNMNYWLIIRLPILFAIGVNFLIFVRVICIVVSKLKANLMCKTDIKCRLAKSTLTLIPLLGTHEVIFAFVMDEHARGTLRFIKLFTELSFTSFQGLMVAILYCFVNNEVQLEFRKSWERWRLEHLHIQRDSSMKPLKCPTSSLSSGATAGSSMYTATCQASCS
# [2] = target: T2, gastric inhibitory peptide receptor (GIPR) (Homo sapiens, UniProt P48546); test: cAMP pharmacological functional assay in presence of casein, hGIPR; assay type: cell-based; conditions: HEK293 cells expressing hGIPR, 0.1% Casein, geometric mean; read-out: hGIPR cAMP Rel EC50 nM (SEM, n)
# T2 sequence (P48546 22-466): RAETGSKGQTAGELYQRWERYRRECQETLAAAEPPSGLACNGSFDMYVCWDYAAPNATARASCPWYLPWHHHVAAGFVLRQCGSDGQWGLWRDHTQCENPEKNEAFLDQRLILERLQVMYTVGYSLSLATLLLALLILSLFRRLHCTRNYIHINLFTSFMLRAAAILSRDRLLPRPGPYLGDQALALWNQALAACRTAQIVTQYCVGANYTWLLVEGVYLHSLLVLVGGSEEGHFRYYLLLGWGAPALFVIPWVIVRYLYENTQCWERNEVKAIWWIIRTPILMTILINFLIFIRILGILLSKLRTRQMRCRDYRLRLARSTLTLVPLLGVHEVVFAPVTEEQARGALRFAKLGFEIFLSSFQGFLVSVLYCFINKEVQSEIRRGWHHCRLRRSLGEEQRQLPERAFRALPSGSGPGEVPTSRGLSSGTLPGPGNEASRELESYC
# human GLP-1R = human GLP-1R (Homo sapiens, UniProt P43220); test: [125I]-GLP-1 binding (SPA), human GLP-1 receptor; parameters: expressed in transfected cells; crude membranes; conditions: read-out: hGLP1R Ki, (nM) (SEM, n)
# human GLP-1R, sequence (P43220 24-463): as the sequence (P43220 24-463) above
# Summary of the method: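 Frozen cell pellets are lysed on ice in hypotonic Tris buffer, pH 7.5, homogenized, and centrifuged to a membrane pellet resuspended at about 1 to 3 mg/mL. Binding is then measured in HEPES-based buffer at pH 7.4, and curves are fitted to give IC50 and Ki.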
# human GIP receptor = target: T3, human GIP receptor (Homo sapiens, UniProt P48546); test: [125I]-GIP binding (SPA), human GIP receptor; conditions: read-out: hGIPR Ki, nM (SEM, n)
# T3 construct: expressed in transfected cells; crude membranes
# T3 sequence (P48546 22-466): T2 sequence (P48546 22-466)
SMILES,Ki (human Gcg receptor) [nM],EC50 [1] [nM],EC50 [2] [nM],Ki (human GLP-1R) [nM],Ki (human GIP receptor) [nM]
CC[C@H](C)[C@H](NC(=O)[C@H](CC(C)C)NC(=O)[C@H](Cc1ccc(O)cc1)NC(=O)[C@@H](CCC(=O)O)NC(=O)[C@@H](NC(=O)[C@H](Cc1ccccc1)NC(=O)[C@H](CCC(=O)O)NC(=O)C(C)(C)NC(=O)[C@H](CCC(N)=O)NC(=O)[C@H](C)NC(=O)[C@H](CCCCNC(=O)COCCOCCNC(=O)COCCOCCNC(=O)CC[C@H](NC(=O)CCCCCCCCCCCCCCCCC(=O)O)C(=O)O)NC(=O)[C@H](CCN)NC(=O)[C@H](CC(=O)O)NC(=O)[C@H](CC(C)C)NC(=O)[C@](C)(CC(C)C)NC(=O)[C@@H](NC(=O)[C@H](CO)NC(=O)[C@H](Cc1ccc(O)cc1)NC(=O)[C@H](CC(=O)O)NC(=O)[C@H](CO)NC(=O)[C@@H](NC(=O)[C@](C)(Cc1ccccc1F)NC(=O)[C@@H](NC(=O)CNC(=O)[C@H](CCC(=O)O)NC(=O)C(C)(C)NC(=O)[C@@H](N)Cc1ccc(O)cc1)[C@@H](C)O)[C@@H](C)O)[C@@H](C)CC)[C@@H](C)CC)C(=O)N[C@@H](CCC(=O)O)C(=O)NCC(=O)NCC(=O)N1CCC[C@H]1C(=O)N[C@@H](CO)C(=O)N[C@@H](CO)C(=O)NCC(=O)N[C@@H](C)C(=O)N1CCC[C@H]1C(=O)N1CCC[C@H]1C(=O)N1CCC[C@H]1C(=O)N[C@@H](CO)C(N)=O [Example 209] (H-Y[Aib]EGT[αMePhe(2-F)]TSDYSI[αMeL]LD[Dab]K([AEEA-AEEA-γGlu-C18 diacid])AQ[Aib]EFI[dE]YLIEGGPSSGAPPPS-NH2),> 1060,0.0374,0.0308,1.43,0.0664
CC[C@H](C)[C@H](NC(=O)[C@H](CC(C)C)NC(=O)[C@H](Cc1ccc(O)cc1)NC(=O)[C@@H](CCC(=O)O)NC(=O)[C@@H](NC(=O)[C@H](Cc1ccccc1)NC(=O)[C@H](CCC(=O)O)NC(=O)C(C)(C)NC(=O)[C@H](CCC(N)=O)NC(=O)[C@H](C)NC(=O)[C@H](CCCCNC(=O)COCCOCCNC(=O)COCCOCCNC(=O)CC[C@H](NC(=O)CCCCCCCCCCCCCCCCC(=O)O)C(=O)O)NC(=O)[C@H](CN)NC(=O)[C@H](CC(=O)O)NC(=O)[C@H](CC(C)C)NC(=O)[C@](C)(CC(C)C)NC(=O)[C@@H](NC(=O)[C@H](CO)NC(=O)[C@H](Cc1ccc(O)cc1)NC(=O)[C@H](CC(=O)O)NC(=O)[C@H](CO)NC(=O)[C@@H](NC(=O)[C@](C)(Cc1ccccc1F)NC(=O)[C@@H](NC(=O)CNC(=O)[C@H](CCC(=O)O)NC(=O)C(C)(C)NC(=O)[C@@H](N)Cc1ccc(O)cc1)[C@@H](C)O)[C@@H](C)O)[C@@H](C)CC)[C@@H](C)CC)C(=O)N[C@@H](CCC(=O)O)C(=O)NCC(=O)NCC(=O)N1CCC[C@H]1C(=O)N[C@@H](CO)C(=O)N[C@@H](CO)C(=O)NCC(=O)N[C@@H](C)C(=O)N1CCC[C@H]1C(=O)N1CCC[C@H]1C(=O)N1CCC[C@H]1C(=O)N[C@@H](CO)C(N)=O [Example 210] (H-Y[Aib]EGT[αMePhe(2-F)]TSDYSI[αMeL]LD[Dap]K([AEEA-AEEA-γGlu-C18 diacid])AQ[Aib]EFI[dE]YLIEGGPSSGAPPPS-NH2),> 1010,0.0432,0.0383,1.58,0.0399
CC[C@H](C)[C@H](NC(=O)[C@H](CC(C)C)NC(=O)[C@H](Cc1ccc(O)cc1)NC(=O)[C@@H](CCC(=O)O)NC(=O)[C@@H](NC(=O)[C@H](Cc1ccccc1)NC(=O)[C@H](CCC(=O)O)NC(=O)C(C)(C)NC(=O)[C@H](CCC(N)=O)NC(=O)[C@H](C)NC(=O)[C@H](CCCCNC(=O)COCCOCCNC(=O)COCCOCCNC(=O)CC[C@H](NC(=O)CCCCCCCCCCCCCCCCCCC(=O)O)C(=O)O)NC(=O)[C@H](CCCCN)NC(=O)[C@H](CC(=O)O)NC(=O)[C@H](CC(C)C)NC(=O)[C@](C)(CC(C)C)NC(=O)[C@@H](NC(=O)[C@H](CO)NC(=O)[C@H](Cc1ccc(O)cc1)NC(=O)[C@H](CC(=O)O)NC(=O)[C@H](CO)NC(=O)[C@@H](NC(=O)[C@](C)(Cc1ccccc1F)NC(=O)[C@@H](NC(=O)CNC(=O)[C@H](CCC(=O)O)NC(=O)C(C)(C)NC(=O)[C@@H](N)Cc1ccc(O)cc1)[C@@H](C)O)[C@@H](C)O)[C@@H](C)CC)[C@@H](C)CC)C(=O)N[C@@H](CCC(=O)O)C(=O)NCC(=O)NCC(=O)N1CCC[C@H]1C(=O)N[C@@H](CO)C(=O)N[C@@H](CO)C(=O)NCC(=O)N[C@@H](C)C(=O)N1CCC[C@H]1C(=O)N1CCC[C@H]1C(=O)N1CCC[C@H]1C(=O)N[C@@H](CO)C(N)=O [Example 212] (H-Y[Aib]EGT[αMePhe(2-F)]TSDYSI[αMeL]LDKK([AEEA-AEEA-γGlu-C20 diacid])AQ[Aib]EFI[dE]YLIEGGPSSGAPPPS-NH2),205,0.0572,0.0501,2.76,0.0978
CC[C@H](C)[C@H](NC(=O)[C@H](CC(C)C)NC(=O)[C@H](Cc1ccc(O)cc1)NC(=O)[C@@H](CCC(=O)O)NC(=O)[C@@H](NC(=O)[C@H](Cc1ccccc1)NC(=O)[C@H](CCC(=O)O)NC(=O)C(C)(C)NC(=O)[C@H](CCC(N)=O)NC(=O)[C@H](C)NC(=O)[C@H](CCCCNC(=O)COCCOCCNC(=O)COCCOCCNC(=O)CC[C@H](NC(=O)CCCCCCCCCCCCCCCCC(=O)O)C(=O)O)NC(=O)[C@H](CCC(=O)O)NC(=O)[C@H](CC(=O)O)NC(=O)[C@H](CC(C)C)NC(=O)[C@](C)(CC(C)C)NC(=O)[C@@H](NC(=O)[C@H](CO)NC(=O)[C@H](Cc1ccc(O)cc1)NC(=O)[C@H](CC(=O)O)NC(=O)[C@H](CO)NC(=O)[C@@H](NC(=O)[C@](C)(Cc1ccccc1)NC(=O)[C@@H](NC(=O)CNC(=O)[C@H](CCC(=O)O)NC(=O)C(C)(C)NC(=O)[C@@H](N)Cc1ccc(O)cc1)[C@@H](C)O)[C@@H](C)O)[C@@H](C)CC)[C@@H](C)CC)C(=O)N[C@@H](CCC(=O)O)C(=O)NCC(=O)NCC(=O)N1CCC[C@H]1C(=O)N[C@@H](CO)C(=O)N[C@@H](CO)C(=O)NCC(=O)N[C@@H](C)C(=O)N1CCC[C@H]1C(=O)N1CCC[C@H]1C(=O)N1CCC[C@H]1C(=O)N[C@@H](CO)C(N)=O [Example 213] (H-Y[Aib]EGT[αMeF]TSDYSI[αMeL]LDEK([AEEA-AEEA-γGlu-C18 diacid])AQ[Aib]EFI[dE]YLIEGGPSSGAPPPS-NH2),544,0.071,0.0523,2.75,0.365
CC[C@H](C)[C@H](NC(=O)[C@H](CC(C)C)NC(=O)[C@H](Cc1ccc(O)cc1)NC(=O)[C@@H](CCC(=O)O)NC(=O)[C@@H](NC(=O)[C@H](Cc1ccccc1)NC(=O)[C@H](CCC(=O)O)NC(=O)C(C)(C)NC(=O)[C@H](CCC(N)=O)NC(=O)[C@H](C)NC(=O)[C@H](CCCCNC(=O)COCCOCCNC(=O)COCCOCCNC(=O)CCCCCCCCCCCCCCCCC(=O)O)NC(=O)[C@H](CCC(=O)O)NC(=O)[C@H](CC(=O)O)NC(=O)[C@H](CC(C)C)NC(=O)[C@](C)(CC(C)C)NC(=O)[C@@H](NC(=O)[C@H](CO)NC(=O)[C@H](Cc1ccc(O)cc1)NC(=O)[C@H](CC(=O)O)NC(=O)[C@H](CO)NC(=O)[C@@H](NC(=O)[C@](C)(Cc1ccccc1F)NC(=O)[C@@H](NC(=O)CNC(=O)[C@H](CCC(=O)O)NC(=O)C(C)(C)NC(=O)[C@@H](N)Cc1ccc(O)cc1)[C@@H](C)O)[C@@H](C)O)[C@@H](C)CC)[C@@H](C)CC)C(=O)N[C@@H](CCC(=O)O)C(=O)NCC(=O)NCC(=O)N1CCC[C@H]1C(=O)N[C@@H](CO)C(=O)N[C@@H](CO)C(=O)NCC(=O)N[C@@H](C)C(=O)N1CCC[C@H]1C(=O)N1CCC[C@H]1C(=O)N1CCC[C@H]1C(=O)N[C@@H](CO)C(N)=O [Example 214] (H-Y[Aib]EGT[αMePhe(2-F)]TSDYSI[αMeL]LDEK([AEEA-AEEA-C18 diacid])AQ[Aib]EFI[dE]YLIEGGPSSGAPPPS-NH2),126,0.0221,0.0251,1.99,0.0304
